Data published in patent US20220202859A1, “CANCER TREATMENT USING CD38 INHIBITOR AND/OR LENALIDOMIDE AND T-CELLS EXPRESSING A CHIMERIC ANTIGEN RECEPTOR” (CRISPR THERAPEUTICS AG, priority 2020, published 2022).

T1: mouse BCMA (mouse, UniProt O88472 1-49, limits assumed)
T1 construct: also called murine BCMA
T1 chain (looked up): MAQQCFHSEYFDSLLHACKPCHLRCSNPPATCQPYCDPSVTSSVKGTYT

T2: biotinylated recombinant human BCMA (Acro Biosystems Cat: #BC7-H82F0) (human, UniProt Q02223 1-54, biotinylated)
T2 construct: Bought reagent
T2 sequence (looked up): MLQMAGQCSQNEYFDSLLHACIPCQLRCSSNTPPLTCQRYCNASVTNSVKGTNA

B1: anti-BCMA CAR (CTX-166b) expressed on CTX120 cells (other)
chain: QVQLVQSGAELKKPGASVKVSCKASGNTLTNYVIHWVRQAPGQRLEWMGYILPYNDLTKYSQKFQGRVTITRDKSASTAYMELSSLRSEDTAVYYCTRWDWDGFFDPWGQGTTVTVSSGGGGSGGGGSGGGGSEIVMTQSPATLSVSPGERASISCRASQSLVHSNGNTHLHWYQQRPGQAPRLLIYSVSNRFSEVPARFSGSGSGTDFTLTISSVESEDFAVYYCSQTSHIPYTFGGGTKLEIKSAAAFVPVFLPAKPTTTPAPRPPTPAPTIASQPLSLRPEACRPAAGGAVHTRGLDFACDIYIWAPLAGTCGVLLLSLVITLYCNHRNRKRGRKKLLYIFKQPFMRPVQTTQEEDGCSCRFPEEEEGGCELRVKFSRSADAPAYQQGQNQLYNELNLGRREEYDVLDKRRGRDPEMGGKPRRKNPQEGLYNELQKDKMAEAYSEIGMKGERRRGKGHDGLYQGLSTATKDTYDALHMQALPPR
notes: also called CTX120 anti-BCMA CAR; CTX120 CAR

How the values were obtained:
NK cells [1] = experiment: Cytokine secretion in co-culture of NK cells with B2Mneg T cells with Lenalidomide; assay type: cell-based, human
Description: (§1) Additionally, cytokine secretion was tested at the end of the co-culture described above, following co-culture of NK cells with B2M^neg T cells, K562 cells (a B2M^neg cell line, commonly used as a positive control for activation of NK cells due to lack of B2M expression), and unedited T cells (used as a negative control for NK cells activation).

[2] = lenalidomide-treated subjects; prescribing information; cited from earlier work
anti-BCMA CAR-T cells [3] = experiment: Cytokine secretion of CAR-T cells produced in the presence of Lenalidomide, co-culture with JeKo-1; assay type: cell-based, human; settings: Lenalidomide 0.5, 2 & 10 uM during ~10 day production; JeKo-1 at 0.5:1 effector to target, no Lenalidomide in assay
Description: PBMCs were thawed and activated by T cell activation agents to enrich for T cells. After 3 days, T cells were edited for B2M and TRAC knock-out using a CRISPR/Cas gene editing system. An anti-BCMA expression cassette (as an exemplary CAR construct) was knocked into the TRAC locus to produce anti-BCMA CAR-T cells. Following the editing procedure, resulting T cells were expanded in the presence of absence of Lenalidomide in a concentration of 0.5, 2, & 10 uM for approximately 10 days. The resulting cells were later evaluated for cytokine secretion following antigen stimulation, in the absence of Lenalidomide.
The inclusion of Lenalidomide […] led to enhanced cytokine secretion of multiple effector cytokines, among them IFN-γ and TNF-α, upon CAR-T engagement by the BCMA expressing target cell line (FIG. 20).

anti-BCMA CAR-T cells [4] = experiment: Lenalidomide on in vitro expansion and senescence (CD57) of anti-BCMA CAR-T cells
PBMCs = experiment: MLR assay (mixed lymphocyte reaction) with Lenalidomide; assay type: cell-based, human
Description: Next, allo-reactivity towards edited T cells (B2M^neg/TCR^neg) was tested using an MLR assay (mixed lymphocyte reaction). In this assay PBMCs (“responder cells”) were mixed with irradiated auto or allo T cells (“stimulator cells”). At the end of the assay, the activation of the responder cells was evaluated by measuring the cell proliferation in the co-culture, with cell proliferation serving as a proxy for immune activation. In the assay shown in FIG. 19C, both auto (donor 1) & allo (donor 2 & 3) were evaluated for immune activation following co-culture. […] As expected, immune activation was reduced upon deletion of B2M & TRAC from the T cells, as evident by the reduced proliferation in both donors tested.

anti-BCMA CAR-T cells [5] = experiment: Lenalidomide on cytokine secretion of anti-BCMA CAR-T cells co-cultured with JeKo-1; assay type: cell-based, human; settings: overnight culture with JeKo-1, 2:1 effector to target; all concentrations tested
Text: Addition of Lenalidomide to the co-culture media led to enhanced cytokine secretion of multiple effector cytokines, among them IFN-γ and TNF-α following CAR-T cell engagement by the BCMA expressing target cell line (FIG. 1C).

anti-BCMA CAR-T cells [6] = experiment: Impact of Lenalidomide on editing efficiency and CD4/CD8 ratio of CAR-T cells; assay type: cell-based, human; settings: day 8
Description: Editing efficiency, including TRAC−%, B2M−% and CAR+% were assessed at day 7/8 and/or day 13/14 with anti-BCMA CAR-T cells. […] Anti-BCMA CAR-T cells were not harvested around day 14 due to slower growth rate. About 51-58% of CAR+%, 96% TRAC−% and 75-77% of B2M−% were detected from anti-BCMA CAR-T cells with or without Lenalidomide treatment.
CD4% and CD8% were assessed at day 7/8 and/or day 13/14 with the anti-BCMA CAR-T cells disclosed above. […] The anti-BCMA CAR-T cells were not assessed and harvested around day 14 due to slower expansion. Compared with Lenalidomide untreated anti-BCMA CAR-T cells, there was dose-dependent increase of CD8 positive cells, ranging from 7-15%. […] Expansion scale (small or medium) didn't impact the CD4 and CD8 phonotype.

NK cells [7] = experiment: Cytokine secretion in co-culture of NK cells with K562 cells with Lenalidomide; assay type: cell-based, human
Description: as §1

NK cells [8] = experiment: NK cytotoxicity towards B2Mneg T cells with Lenalidomide; assay type: cell-based, human; settings: overnight co-culture; wide range of Lenalidomide concentrations
Description: Two modes of allogenic immune recognition were tested: immune recognition of B2M^neg cells by NK cells, and immune recognition by allogenic T cells. Examination of the cytotoxic activity of NK cells towards B2M^neg cells was tested following overnight (ON) co-culture in varying concentrations of NK to T cells, and varying concentrations of Lenalidomide. Increasing concentration of NK to B2M^neg T cells led to an increase in the cytotoxic activity of NK cells towards B2M^neg T cells.

MM.1S tumors = experiment: Lenalidomide plus anti-BCMA CAR-T cells in MM.1S subcutaneous tumor model; settings: single arm: 3 million CAR-T cells, or Lenalidomide 1.5 or 10 mg/kg
mouse BCMA = molecular target: T1, mouse BCMA; experiment: not described (statement in Example 5)
[9] = molecular target: T2, biotinylated recombinant human BCMA …; experiment: flow cytometry of CTX120 cells, detection of the surface CAR with biotinylated BCMA and fluorescent streptavidin

binding result (mouse BCMA)	binding result [9]	Molecule	cytokine secretion (NK cells [1])	grade 3 or 4 neutropenia [2]	grade 3 or 4 thrombocytopenia [2]	effector cytokine secretion upon antigen stimulation (anti-BCMA CAR-T cells [3])	higher expansion of anti-BCMA CAR-T cells (anti-BCMA CAR-T cells [4]; 0.5 uM to 10 uM Lenalidomide)	senescence marker CD57 expression (anti-BCMA CAR-T cells [4]; all tested concentrations, 10 day culture)	proliferation upon allo co-culture with edited T cells (PBMCs; edited (B2Mneg/TCRneg) stimulator T cells)	allo reactivity towards unedited T cells (PBMCs; unedited stimulator T cells, donor 2)	effector cytokine secretion upon antigen stimulation (anti-BCMA CAR-T cells [5])	overall distribution of CD4 and CD8 cells (anti-BCMA CAR-T cells [6])	dose-dependent increase of CD8 positive cells (anti-BCMA CAR-T cells [6]; compared with Lenalidomide untreated cells)	cytokine secretion (NK cells [7])	NK cell killing of B2Mneg T cells (NK cells [8])	effect on tumor regression and mouse survival compared to no treatment arm (MM.1S tumors)
–	–	Nc1cccc2c1CN(C1CCC(=O)NC1=O)C2=O (stereo not shown) [Lenalidomide]	minimal changes were observed upon addition of Lenalidomide	up to 59%	up to 38%	enhance effector cytokine secretion upon antigen stimulation	5-30 fold	reduced expression of CD57	minimal changes upon addition of Lenalidomide to the co-culture	may in some cases enhance allo reactivity towards unedited T cells	enhanced effector cytokine secretion upon antigen stimulation	not significantly altered	7-15%	Upregulation of secretion of several cytokines	did not lead to an increased cell killing of the B2M^neg T cells	minimal effect on both tumor regression and mouse survival
no binding	binds	B1	–	–	–	–	–	–	–	–	–	–	–	–	–	–
